{"source": "patent US10620225B2", "about": "“Detection of polymyxins” (Randox Laboratories Limited, priority 2014, dated 2020)", "format_in_all_cases": "binding, sheep", "key": {"Antibody RS2790": {"tested_on": "Antibody RS2790", "assay": "Competitive biochip immunoassay with Polymyxin B-KLH derived antibody RS2790 and Colistin-HRP tracer", "experimental": "(§1) The process of developing an immunoassay is well known to the person skilled in the art. Briefly, for a competitive immunoassay in which the target analyte is a non-immunogenic molecule such as a hapten, a general immunoassay development process outlined. Following antibody production, a detecting agent is added to a sample containing the target analyte and the raised antibodies, and the detecting agent and analyte compete for binding to the antibodies. The process may comprise fixing said serum antibodies to a solid state device such as a polystyrene support or a ceramic chip. The antibodies can be polyclonal or monoclonal using standard techniques, but the current invention makes use of polyclonal antibodies. The signal emitted in the immunoassay is proportionate to the quantity of detecting agent bound to the antibodies which in turn is inversely proportionate to the analyte concentration. The signal can be detected or quantified by comparison with a calibrator.\n(§2) 175 μl of assay diluent, then 25 μl of Polymyxin diluted in calibrator base was added to the appropriate wells. Biochips spotted with antibody of the invention were incubated for 30 min at 25° C. in a thermo-shaker at 370 rpm. 100 μl Tracer of the invention was added to the appropriate wells. Biochips were incubated for 60 min at 25° C. in a thermo-shaker at 370 rpm. Biochips were washed with TBST (2 quick washes followed by 4 washes at 2 min intervals). Biochips were developed with 250 μl signal: peroxide (1:1) for 2 min in the dark. Biochips were imaged on the Randox Investigator (2×60 sec images). All biochips were manually processed."}, "Antibody RS2830": {"tested_on": "Antibody RS2830", "assay": "Competitive biochip immunoassay with Polymyxin B-KLH derived antibody RS2830 and Colistin-HRP tracer", "experimental": "as §1, §2"}, "Antibody RS2801": {"tested_on": "Antibody RS2801", "assay": "Competitive biochip immunoassay with Polymyxin B-KLH derived antibody RS2801 and Colistin-HRP tracer", "experimental": "as §1, §2"}, "[1]": {"tested_on": "Polymyxin B derived antibody", "assay": "Competitive biochip immunoassay, standard curves with Polymyxin B derived antibody and Colistin-based tracer", "settings": "for CR (percentage cross-reactivity) / IC50 (standard concentration which produces 50% inhibition of maximal signal): Polymyxin B derived antibody, Colistin-based tracer", "experimental": "as §1, §2"}, "[2]": {"settings": "antibody 0.1 mg/ml, Colistin-HRP tracer dilution 1/50K"}, "[3]": {"settings": "antibody 0.1 mg/ml, Colistin-HRP tracer dilution 1/100K"}, "[4]": {"settings": "antibody 0.1 mg/ml, tracer dilution 1/50K"}, "[5]": {"settings": "antibody 0.1 mg/ml, tracer dilution 1/100K"}, "[6]": {"settings": "antibody 0.75 mg/ml, Colistin-HRP tracer dilution 1/50K"}, "[7]": {"settings": "antibody 0.75 mg/ml, Colistin-HRP tracer dilution 1/100K"}, "[8]": {"settings": "antibody 0.75 mg/ml, tracer dilution 1/50K"}, "[9]": {"settings": "antibody 0.75 mg/ml, tracer dilution 1/100K"}, "[10]": {"settings": "antibody 0.1 mg/ml, Colistin-HRP tracer dilution 1/500K"}, "[11]": {"settings": "antibody 0.1 mg/ml, Colistin-HRP tracer dilution 1/1000K"}, "[12]": {"settings": "antibody 0.1 mg/ml, tracer dilution 1/500K"}, "[13]": {"settings": "antibody 0.1 mg/ml, tracer dilution 1/1000K"}, "[14]": {"settings": "antibody 0.75 mg/ml, Colistin-HRP tracer dilution 1/500K"}, "[15]": {"settings": "antibody 0.75 mg/ml, Colistin-HRP tracer dilution 1/1000K"}, "[16]": {"settings": "antibody 0.75 mg/ml, tracer dilution 1/500K"}, "[17]": {"settings": "antibody 0.75 mg/ml, tracer dilution 1/1000K"}}}
{"substance": "Colistin", "values": [{"measurement": "Relative % Cross-reactivity", "setting": "Antibody RS2790; [2]", "value": 5, "unit": "%"}, {"measurement": "Relative % Cross-reactivity", "setting": "Antibody RS2790; [3]", "value": 23, "unit": "%"}, {"measurement": "Relative Binding (IC50)", "setting": "Antibody RS2790; [4]", "value": 3.02, "unit": "ng/mL"}, {"measurement": "Relative Binding (IC50)", "setting": "Antibody RS2790; [5]", "value": 1.60, "unit": "ng/mL"}, {"measurement": "Relative % Cross-reactivity", "setting": "Antibody RS2790; [6]", "value": 8, "unit": "%"}, {"measurement": "Relative % Cross-reactivity", "setting": "Antibody RS2790; [7]", "value": 59, "unit": "%"}, {"measurement": "Relative Binding (IC50)", "setting": "Antibody RS2790; [8]", "value": 1.72, "unit": "ng/mL"}, {"measurement": "Relative Binding (IC50)", "setting": "Antibody RS2790; [9]", "value": 1.01, "unit": "ng/mL"}, {"measurement": "Relative % Cross-reactivity", "setting": "Antibody RS2830; [10]", "value": 6, "unit": "%"}, {"measurement": "Relative % Cross-reactivity", "setting": "Antibody RS2830; [11]", "value": 5, "unit": "%"}, {"measurement": "Relative Binding (IC50)", "setting": "Antibody RS2830; [12]", "value": 2.54, "unit": "ng/mL"}, {"measurement": "Relative Binding (IC50)", "setting": "Antibody RS2830; [13]", "value": 3.62, "unit": "ng/mL"}, {"measurement": "Relative % Cross-reactivity", "setting": "Antibody RS2830; [14]", "value": 8, "unit": "%"}, {"measurement": "Relative % Cross-reactivity", "setting": "Antibody RS2830; [15]", "value": 9, "unit": "%"}, {"measurement": "Relative Binding (IC50)", "setting": "Antibody RS2830; [16]", "value": 2.16, "unit": "ng/mL"}, {"measurement": "Relative Binding (IC50)", "setting": "Antibody RS2830; [17]", "value": 2.47, "unit": "ng/mL"}, {"measurement": "Relative % Cross-reactivity", "setting": "Antibody RS2801; [10]", "value": 20, "unit": "%"}, {"measurement": "Relative % Cross-reactivity", "setting": "Antibody RS2801; [11]", "value": 15, "unit": "%"}, {"measurement": "Relative Binding (IC50)", "setting": "Antibody RS2801; [12]", "value": 0.47, "unit": "ng/mL"}, {"measurement": "Relative Binding (IC50)", "setting": "Antibody RS2801; [13]", "value": 0.78, "unit": "ng/mL"}, {"measurement": "Relative % Cross-reactivity", "setting": "Antibody RS2801; [14]", "value": 67, "unit": "%"}, {"measurement": "Relative % Cross-reactivity", "setting": "Antibody RS2801; [15]", "value": 62, "unit": "%"}, {"measurement": "Relative Binding (IC50)", "setting": "Antibody RS2801; [16]", "value": 0.24, "unit": "ng/mL"}, {"measurement": "Relative Binding (IC50)", "setting": "Antibody RS2801; [17]", "value": 0.22, "unit": "ng/mL"}, {"measurement": "CR (percentage cross-reactivity)", "setting": "[1]", "value": "(CR = 80%)"}, {"measurement": "IC50 (standard concentration which produces 50% inhibition of maximal signal)", "setting": "[1]", "value": 1.191, "unit": "ng/mL"}, {"measurement": "B/Bo", "setting": "[1]; standard conc 0.391 ng/ml", "value": 71, "unit": "%"}, {"measurement": "B/Bo", "setting": "[1]; standard conc 0.781 ng/ml", "value": 58, "unit": "%"}, {"measurement": "B/Bo", "setting": "[1]; standard conc 1.563 ng/ml", "value": 44, "unit": "%"}, {"measurement": "B/Bo", "setting": "[1]; standard conc 3.125 ng/ml", "value": 33, "unit": "%"}, {"measurement": "B/Bo", "setting": "[1]; standard conc 6.250 ng/ml", "value": 17, "unit": "%"}, {"measurement": "B/Bo", "setting": "[1]; standard conc 12.500 ng/ml", "value": 11, "unit": "%"}, {"measurement": "B/Bo", "setting": "[1]; standard conc 25.000 ng/ml", "value": 9, "unit": "%"}, {"measurement": "B/Bo", "setting": "[1]; standard conc 50.000 ng/ml", "value": 6, "unit": "%"}]}
{"substance": "Polymyxin B", "values": [{"measurement": "Relative % Cross-reactivity", "setting": "Antibody RS2790; [2]", "value": 100, "unit": "%"}, {"measurement": "Relative % Cross-reactivity", "setting": "Antibody RS2790; [3]", "value": 100, "unit": "%"}, {"measurement": "Relative Binding (IC50)", "setting": "Antibody RS2790; [4]", "value": 0.14, "unit": "ng/mL"}, {"measurement": "Relative Binding (IC50)", "setting": "Antibody RS2790; [5]", "value": 0.37, "unit": "ng/mL"}, {"measurement": "Relative % Cross-reactivity", "setting": "Antibody RS2790; [6]", "value": 100, "unit": "%"}, {"measurement": "Relative % Cross-reactivity", "setting": "Antibody RS2790; [7]", "value": 100, "unit": "%"}, {"measurement": "Relative Binding (IC50)", "setting": "Antibody RS2790; [8]", "value": 0.14, "unit": "ng/mL"}, {"measurement": "Relative Binding (IC50)", "setting": "Antibody RS2790; [9]", "value": 0.59, "unit": "ng/mL"}, {"measurement": "Relative % Cross-reactivity", "setting": "Antibody RS2830; [10]", "value": 100, "unit": "%"}, {"measurement": "Relative % Cross-reactivity", "setting": "Antibody RS2830; [11]", "value": 100, "unit": "%"}, {"measurement": "Relative Binding (IC50)", "setting": "Antibody RS2830; [12]", "value": 0.15, "unit": "ng/mL"}, {"measurement": "Relative Binding (IC50)", "setting": "Antibody RS2830; [13]", "value": 0.17, "unit": "ng/mL"}, {"measurement": "Relative % Cross-reactivity", "setting": "Antibody RS2830; [14]", "value": 100, "unit": "%"}, {"measurement": "Relative % Cross-reactivity", "setting": "Antibody RS2830; [15]", "value": 100, "unit": "%"}, {"measurement": "Relative Binding (IC50)", "setting": "Antibody RS2830; [16]", "value": 0.17, "unit": "ng/mL"}, {"measurement": "Relative Binding (IC50)", "setting": "Antibody RS2830; [17]", "value": 0.22, "unit": "ng/mL"}, {"measurement": "Relative % Cross-reactivity", "setting": "Antibody RS2801; [10]", "value": 100, "unit": "%"}, {"measurement": "Relative % Cross-reactivity", "setting": "Antibody RS2801; [11]", "value": 100, "unit": "%"}, {"measurement": "Relative Binding (IC50)", "setting": "Antibody RS2801; [12]", "value": 0.09, "unit": "ng/mL"}, {"measurement": "Relative Binding (IC50)", "setting": "Antibody RS2801; [13]", "value": 0.12, "unit": "ng/mL"}, {"measurement": "Relative % Cross-reactivity", "setting": "Antibody RS2801; [14]", "value": 100, "unit": "%"}, {"measurement": "Relative % Cross-reactivity", "setting": "Antibody RS2801; [15]", "value": 100, "unit": "%"}, {"measurement": "Relative Binding (IC50)", "setting": "Antibody RS2801; [16]", "value": 0.16, "unit": "ng/mL"}, {"measurement": "Relative Binding (IC50)", "setting": "Antibody RS2801; [17]", "value": 0.13, "unit": "ng/mL"}, {"measurement": "CR (percentage cross-reactivity)", "setting": "[1]", "value": "(CR = 100%)"}, {"measurement": "IC50 (standard concentration which produces 50% inhibition of maximal signal)", "setting": "[1]", "value": 0.931, "unit": "ng/mL"}, {"measurement": "B/Bo", "setting": "[1]; standard conc 0.078 ng/ml", "value": 86, "unit": "%"}, {"measurement": "B/Bo", "setting": "[1]; standard conc 0.156 ng/ml", "value": 78, "unit": "%"}, {"measurement": "B/Bo", "setting": "[1]; standard conc 0.313 ng/ml", "value": 64, "unit": "%"}, {"measurement": "B/Bo", "setting": "[1]; standard conc 0.625 ng/ml", "value": 56, "unit": "%"}, {"measurement": "B/Bo", "setting": "[1]; standard conc 1.250 ng/ml", "value": 51, "unit": "%"}, {"measurement": "B/Bo", "setting": "[1]; standard conc 2.500 ng/ml", "value": 38, "unit": "%"}, {"measurement": "B/Bo", "setting": "[1]; standard conc 5.000 ng/ml", "value": 27, "unit": "%"}, {"measurement": "B/Bo", "setting": "[1]; standard conc 10.000 ng/ml", "value": 16, "unit": "%"}]}
